Reference: patent US20160058847A1, “IS100- A Highly Effective Enzyme Principle For Use In Dermal Therapeutics, And For Health And Beauty” (Issar Pharmaceuticals Pvt. Ltd., priority 2014, published 2016)
“Also recorded” adds a separate entry of the source.

How the values were obtained:
IS 100 [1] = conditions: Ac-DEVD-AFC hydrolysis
Protocol: Rates of hydrolysis of a synthetic peptide Ac-DEVD↓-AFC (N-acetyl-Asp-Glu-Val-Asp-7-amino-4-trifluoromethylcoumarin) as a function of variables are plotted. Note that the rate, ΔF, is determined from the initial slope of the time-dependent fluorescence trace.
In the present test, 400 μL of IS 100 is combined with 2 μL of a 1 mM solution of Ac-DEVD↓-AFC, and the fluorescence is monitored as a function of time at 37° C.

IS 100 [2] = assay type: biochemical, wheat; conditions: pH 7, 37° C.; for inhibition of IS 100 activity (in words): Ac-DEVD-AFC hydrolysis, 20 mM HEPES, 0.05% CHAPS, 5% sucrose, FIG. 3
Protocol: As described above, the proteolytic activity of IS 100 can be blocked by using an inhibitor which blocks the active site of the protein enzyme present in the IS 100 principle. In FIG. 2 inhibitor Ac-DEVD-CHO inhibits the activity of IS 100. Several other chemicals or compounds can be tested for their efficacy in blocking the activity of IS 100. In such experiments, IS 100 is mixed with its synthetic substrate Ac-DEVD↓-AFC, and a constant volume of the inhibitor compound is added to check the extent to which the inhibitor blocks the activity of IS 100. In all experimental runs the concentrations of IS 100 and Ac-DEVD↓-AFC are maintained uniformly. The pH for all experiments is kept at 7 and the experiments are run at 37° C.

human recombinant PERK = experiment: Proteolytic cleavage of PERK by IS 100, Western analysis; assay type: biochemical; conditions: inhibitor included in reaction mixture, FIG. 2 lane 1
Protocol: (§1) FIG. 2 illustrates proteolytic cleavage by formulation IS 100 shown by Western analysis of cleavage products of substrate proteins. IS 100 was incubated with the test protein in the presence and absence of the synthetic inhibitor Ac-DEVD-CHO, and the reaction product was immunoblotted using antibody for the test protein.
(§2) These two proteins were chosen simply because of their ready availability with the investigators. In fact, any protein will be a substrate for IS 100. In a typical protocol, IS 100 is incubated with the test substrate protein in the presence and absence of the synthetic inhibitor Ac-DEVD-CHO, and the reaction products are analyzed by electrophoresis, the amount of the uncut test protein is immunoblotted with human anti-PKR or anti-PERK antibodies. Note that immunoblotting of a test protein by using the corresponding antibody will show the status of that protein alone, and not other proteins present in IS 100.

human recombinant PKR = experiment: Proteolytic cleavage of PKR by IS 100, Western analysis; assay type: biochemical; conditions: inhibitor included in reaction mixture, FIG. 2 lane 1
Protocol: as §1, §2

[Cl-].[Na+] [NaCl, sodium chloride]
effect of NaCl concentration on enzyme activity (IS 100 [1]; FIG. 1D): highly sensitive

CC(=O)N[C@@H](CC(C)C)C(=O)N[C@@H](CC(C)C)C(=O)N[C@H](C=O)CCCNC(=N)N [leupeptin]
inhibition of IS 100 activity (in words) (IS 100 [2]): influences the activity to some extent | inhibition of IS 100 activity, saturation level (IS 100 [2]; at ~25 μM, FIG. 3B): 30%

[Cl-].[Cl-].[Zn+2] [ZnCl2, zinc chloride]
Kd (IS 100 [1]; read-out: apparent binding constant, KZn app (inhibition), FIG. 1E): 310 µM

Ac-DEVD-CHO
inhibition of IS 100 activity (in words) (IS 100 [2]): inhibits the activity of IS 100 significantly | block of PERK cleavage by IS 100 (human recombinant PERK): cleavage is blocked; also recorded: not cleaved | block of PKR cleavage by IS 100 (human recombinant PKR): cleavage is blocked; also recorded: not cleaved

[Cl-].[Cl-].[Mg+2] [MgCl2, magnesium chloride]
concentration at which the activity passes through a minimum (IS 100 [1]; FIG. 1F): ~0.1 mM

O=S(=O)(F)Cc1ccccc1 [PMSF, phenylmethanesulfonyl fluoride]
inhibition of IS 100 activity (in words) (IS 100 [2]): only marginally; also recorded: sign of inhibition is also apparent | inhibition of IS 100 activity (IS 100 [2]; at 1000 μM, FIG. 3C): ~10%

O=C(O)CI [IAA, Iodoacetic acid]
inhibition of IS 100 activity (in words) (IS 100 [2]): completely inhibits the activity; also recorded: almost completely knocks out the activity
